# Assay results taken from patent publication US6737383B1, “Herbicidal oxadiazolidines” (priority 1999, dated 2004).
# Key:
# surinam grass = experiment: Test B pre/postemergence surinam grass; format: in vivo, Brachiaria decumbens
# Outline: (§1)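 Herbicidal effect was estimated by eye on a ten-point control scale after plants spent twelve to sixteen days in a greenhouse following soil or foliar treatment. Foliar sprays targeted plants at one to four leaves; all doses were formulated in a non-phytotoxic solvent with surfactant.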
# rape = experiment: Test B pre/postemergence rape; format: in vivo, Brassica napus
# Outline: as §1
# bedstraw = experiment: Test B pre/postemergence bedstraw; format: in vivo, Galium aparine
# Outline: as §1
# crabgrass = experiment: Test B pre/postemergence crabgrass; format: in vivo, Digitaria sanguinalis
# Outline: as §1
# corn = experiment: Test B pre/postemergence corn; format: in vivo, Zea mays
# Outline: as §1
# sugar beet = experiment: Test B pre/postemergence sugar beet; format: in vivo, Beta vulgaris; conditions: for Plant response rating, Sugarbeets: Postemergence
# Outline: as §1
# cocklebur = experiment: Test B pre/postemergence cocklebur; format: in vivo, Xanthium strumarium
# Outline: as §1
# velvetleaf = experiment: Test B pre/postemergence velvetleaf; format: in vivo, Abutilon theophrasti; conditions: for Plant response rating, Velvetleaf: Postemergence
# Outline: as §1
# soybean = experiment: Test B pre/postemergence soybean; format: in vivo, Glycine max; conditions: for Plant response rating, Soybean: Postemergence
# Outline: as §1
# purple nutsedge = experiment: Test B pre/postemergence purple nutsedge; format: in vivo, Cyperus rotundus
# Outline: as §1
# wild oat = experiment: Test B pre/postemergence wild oat; format: in vivo, Avena fatua; conditions: for Plant response rating, Wild oats: Postemergence
# Outline: as §1
# wheat = experiment: Test B pre/postemergence wheat; format: in vivo, Triticum aestivum; conditions: for Plant response rating, Wheat: Postemergence
# Outline: as §1
# morningglory = experiment: Test B pre/postemergence morningglory; format: in vivo, Ipomoea hederacea
# Outline: as §1
# giant foxtail = experiment: Test B pre/postemergence giant foxtail; format: in vivo, Setaria faberii
# Outline: as §1
# blackgrass = experiment: Test B pre/postemergence blackgrass; format: in vivo, Alopecurus myosuroides
# Outline: as §1
# pigweed = experiment: Test B pre/postemergence pigweed; format: in vivo, Amaranthus retroflexus; conditions: for Plant response rating, Redroot pigweed: Postemergence
# Outline: as §1
# [1] = Postemergence, Rate 62 g/ha, scale of 0 to 10, 0 is no effect, 10 is complete control
# [2] = Postemergence, Rate 125 g/ha, scale 0 to 10, 0 is no effect, 10 is complete control
# [3] = Postemergence, Rate 500 g/ha, scale of 0 to 10 where 0 is no effect and 10 is complete control
# [4] = Preemergence, Rate 62 g/ha, scale 0 to 10 (0 no effect, 10 complete control)
# [5] = Preemergence, Rate 125 g/ha, scale 0 to 10, 0 is no effect, 10 is complete control
# [6] = Preemergence, Rate 500 g/ha, scale of 0 to 10 where 0 is no effect and 10 is complete control
# [7] = Rate 250 g/ha, Postemergence, scale of 0 to 10 where 0 is no effect and 10 is complete control
# [8] = Rate 500 g/ha, scale of 0 to 10 where 0 is no effect and 10 is complete control
# [9] = Rate 250 g/ha, scale of 0 to 10 where 0 is no effect and 10 is complete control
structure (smiles),measurement,setting,value
COC(=O)CCCn1c(=O)on(C(=O)N(c2ccccc2)C(C)C)c1=O [Compound 572],B. signalgrass plant response rating,surinam grass; [1],0
same,B. signalgrass plant response rating,surinam grass; [2],0
same,"Plant response rating, B. signalgrass",surinam grass; [3],0
same,B. signalgrass plant response rating,surinam grass; [4],0
same,B. signalgrass plant response rating,surinam grass; [5],0
same,"B. signalgrass plant response rating (0 to 10 scale, 0 is no effect, 10 is complete control)","surinam grass; Preemergence, Rate 250 g/ha",0
same,B. signalgrass plant response rating,surinam grass; [6],0
same,"Plant response rating, B. signalgrass",surinam grass; [7],0
same,Rape plant response rating,rape; [1],2
same,Rape plant response rating,rape; [2],3
same,"Plant response rating, Rape",rape; [3],4
same,Rape plant response rating,rape; [4],0
same,Rape plant response rating,rape; [5],0
same,Rape plant response rating (0 to 10 scale),"rape; Preemergence, Rate 250 g/ha",0
same,Rape plant response rating,rape; [6],0
same,"Plant response rating, Rape",rape; [7],3
same,Bedstraw plant response rating,bedstraw; [1],0
same,Bedstraw plant response rating,bedstraw; [4],0
same,Bedstraw plant response rating,bedstraw; [5],0
same,Bedstraw plant response rating (0 to 10 scale),"bedstraw; Preemergence, Rate 250 g/ha",0
same,Bedstraw plant response rating,bedstraw; [6],0
same,"Plant response rating, Bedstraw",bedstraw; [7],0
same,Crabgrass plant response rating,crabgrass; [1],0
same,Crabgrass plant response rating,crabgrass; [2],0
same,"Plant response rating, Crabgrass",crabgrass; [3],8
same,Crabgrass plant response rating,crabgrass; [4],0
same,Crabgrass plant response rating,crabgrass; [5],0
same,Crabgrass plant response rating (0 to 10 scale),"crabgrass; Preemergence, Rate 250 g/ha",0
same,Crabgrass plant response rating,crabgrass; [6],0
same,"Plant response rating, Crabgrass",crabgrass; [7],6
same,Corn plant response rating,corn; [1],0
same,Corn plant response rating,corn; [2],0
same,"Plant response rating, Corn",corn; [3],0
same,Corn plant response rating,corn; [4],0
same,Corn plant response rating,corn; [5],0
same,Corn plant response rating (0 to 10 scale),"corn; Preemergence, Rate 250 g/ha",0
same,Corn plant response rating,corn; [6],0
same,"Plant response rating, Corn",corn; [7],0
same,"Plant response rating, Sugarbeets",sugar beet; [8],0
same,Sugarbeets plant response rating,sugar beet; [4],0
same,Sugarbeets plant response rating,sugar beet; [5],0
same,Sugarbeets plant response rating (0 to 10 scale),"sugar beet; Preemergence, Rate 250 g/ha",0
same,Sugarbeets plant response rating,sugar beet; [6],0
same,"Plant response rating, Sugarbeets",sugar beet; [9],0
same,Cocklebur plant response rating,cocklebur; [1],0
same,Cocklebur plant response rating,cocklebur; [2],0
same,"Plant response rating, Cocklebur",cocklebur; [3],0
same,Cocklebur plant response rating,cocklebur; [4],0
same,Cocklebur plant response rating,cocklebur; [5],0
same,Cocklebur plant response rating (0 to 10 scale),"cocklebur; Preemergence, Rate 250 g/ha",0
same,Cocklebur plant response rating,cocklebur; [6],0
same,"Plant response rating, Cocklebur",cocklebur; [7],0
same,"Plant response rating, Velvetleaf",velvetleaf; [8],7
same,Velvetleaf plant response rating,velvetleaf; [4],0
same,Velvetleaf plant response rating,velvetleaf; [5],0
same,Velvetleaf plant response rating (0 to 10 scale),"velvetleaf; Preemergence, Rate 250 g/ha",0
same,Velvetleaf plant response rating,velvetleaf; [6],2
same,"Plant response rating, Velvetleaf",velvetleaf; [9],0
same,"Plant response rating, Soybean",soybean; [8],7
same,Soybean plant response rating,soybean; [4],0
same,Soybean plant response rating,soybean; [5],0
same,Soybean plant response rating (0 to 10 scale),"soybean; Preemergence, Rate 250 g/ha",0
same,Soybean plant response rating,soybean; [6],0
same,"Plant response rating, Soybean",soybean; [9],5
same,Nutsedge plant response rating,purple nutsedge; [1],0
same,Nutsedge plant response rating,purple nutsedge; [2],0
same,Nutsedge plant response rating,purple nutsedge; [4],0
same,Nutsedge plant response rating,purple nutsedge; [5],0
same,Nutsedge plant response rating (0 to 10 scale),"purple nutsedge; Preemergence, Rate 250 g/ha",0
same,Nutsedge plant response rating,purple nutsedge; [6],0
same,"Plant response rating, Nutsedge",purple nutsedge; [7],0
same,"Plant response rating, Wild oats",wild oat; [8],0
same,Wild oats plant response rating,wild oat; [4],0
same,Wild oats plant response rating,wild oat; [5],0
same,Wild oats plant response rating (0 to 10 scale),"wild oat; Preemergence, Rate 250 g/ha",0
same,Wild oats plant response rating,wild oat; [6],0
same,"Plant response rating, Wild oats",wild oat; [9],0
same,"Plant response rating, Wheat",wheat; [8],0
same,Wheat plant response rating,wheat; [4],0
same,Wheat plant response rating,wheat; [5],0
same,Wheat plant response rating (0 to 10 scale),"wheat; Preemergence, Rate 250 g/ha",0
same,Wheat plant response rating,wheat; [6],0
same,"Plant response rating, Wheat",wheat; [9],0
same,Morningglory plant response rating,morningglory; [1],3
same,Morningglory plant response rating,morningglory; [2],3
same,"Plant response rating, Morningglory",morningglory; [3],10
same,Morningglory plant response rating,morningglory; [4],0
same,Morningglory plant response rating,morningglory; [5],0
same,Morningglory plant response rating (0 to 10 scale),"morningglory; Preemergence, Rate 250 g/ha",0
same,Morningglory plant response rating,morningglory; [6],0
same,"Plant response rating, Morningglory",morningglory; [7],5
same,Giant foxtail plant response rating,giant foxtail; [1],0
same,Giant foxtail plant response rating,giant foxtail; [2],0
same,"Plant response rating, Giant foxtail",giant foxtail; [3],0
same,Giant foxtail plant response rating,giant foxtail; [4],0
same,Giant foxtail plant response rating,giant foxtail; [5],0
same,Giant foxtail plant response rating (0 to 10 scale),"giant foxtail; Preemergence, Rate 250 g/ha",4
same,Giant foxtail plant response rating,giant foxtail; [6],7
same,"Plant response rating, Giant foxtail",giant foxtail; [7],0
same,Blackgrass plant response rating,blackgrass; [1],0
same,Blackgrass plant response rating,blackgrass; [2],0
same,"Plant response rating, Blackgrass",blackgrass; [3],0
same,Blackgrass plant response rating,blackgrass; [4],0
same,Blackgrass plant response rating,blackgrass; [5],0
same,Blackgrass plant response rating (0 to 10 scale),"blackgrass; Preemergence, Rate 250 g/ha",0
same,Blackgrass plant response rating,blackgrass; [6],0
same,"Plant response rating, Blackgrass",blackgrass; [7],0
same,"Plant response rating, Redroot pigweed",pigweed; [8],0
same,Redroot pigweed plant response rating,pigweed; [4],0
same,Redroot pigweed plant response rating,pigweed; [5],0
same,Redroot pigweed plant response rating (0 to 10 scale),"pigweed; Preemergence, Rate 250 g/ha",0
same,Redroot pigweed plant response rating,pigweed; [6],5
same,"Plant response rating, Redroot pigweed",pigweed; [9],0
